According to PMC6271425, “Synthesis and Sar Study of Diarylpentanoid Analogues as New Anti-Inflammatory Agents” (Molecules, 2014):
Like-named read-outs stand apart in the source and are kept apart here.

Legend:
[1] = Cell cytotoxicity determination (MTT assay); type: cell-based, murine; conditions: mouse, RAW 264.7 macrophage cells, RAW 264.7 cells, read-out: Cytotoxicity IC50 (µM) ± S.E.M
Protocol: The synthesized compounds were screened for NO suppression activity in IFN-γ/LPS-stimulated RAW 264.7 macrophages at a 50 µM test concentration. […] The IC50 values of the fifty-seven bioactive compounds were determined and compared to that of the positive control, curcumin. An MTT assay was also carried out to confirm that NO inhibition was not due to cytotoxicity. […] The complete bioassay results of all the compounds are provided as Table S2 in Supplementary Data.
RAW 264.7 murine macrophages cells obtained from American Type Culture Collection (ATCC, Rockville, MD, USA) were grown in Dulbecco’s Modified Eagle’s Medium (DMEM) containing 10% fetal bovine serum (FBS) and 1% penicillin/streptomycin in a 95% air and 5% CO2 atmosphere at 37 °C.
Supernatant in each well was removed followed by addition of 100 µL DMEM. Subsequently, 20 µL of 3-(4,5-dimethylthiazol-2-yl)-2,5-diphenyltetrazolium bromide (MTT, 5 mg/mL) was then added and the plate was incubated in a 95% air and 5% CO2 atmosphere at 37 °C for 4 h. The mixture of culture media and MTT in all wells were removed and the purplish formazan crystals formed were dissolved in dimethyl sulfoxide (DMSO) and further incubated for 15 min at room temperature. The color intensity was then measured at 570 nm at room temperature.

[2] = system: NO production in IFN-γ/LPS-stimulated RAW 264.7 macrophages; test: NO suppression (Griess nitrite determination) in IFN-γ/LPS-stimulated RAW 264.7 macrophages; type: cell-based, murine; conditions: for NO Inhibition at 50 µM (%) ± S.E.M: 50 µM test concentration; for inhibition at 50 µM: RAW264.7, 50 µM test concentration, read-out: NO Inhibition at 50 µM (%) ± S.E.M
Protocol: The synthesized compounds were screened for NO suppression activity in IFN-γ/LPS-stimulated RAW 264.7 macrophages at a 50 µM test concentration. […] The IC50 values of the fifty-seven bioactive compounds were determined and compared to that of the positive control, curcumin. An MTT assay was also carried out to confirm that NO inhibition was not due to cytotoxicity. […] The complete bioassay results of all the compounds are provided as Table S2 in Supplementary Data. RAW 264.7 murine macrophages cells obtained from American Type Culture Collection (ATCC, Rockville, MD, USA) were grown in Dulbecco’s Modified Eagle’s Medium (DMEM) containing 10% fetal bovine serum (FBS) and 1% penicillin/streptomycin in a 95% air and 5% CO2 atmosphere at 37 °C. RAW 264.7 cells at 90%–95% confluency were detached and seeded (50,000 cells/well) into a 96-well culture plate with 50 μL of DMEM and incubated for 24 h. The cells were then stimulated in […] of LPS (Escherichia coli, serotype 0111:B4) and 1 ng/ml of interferon-gamma (IFN-γ) in the presence or absence of test compounds for 17 h. Nitrite concentration was then determined by Griess assay by reacting 50 μL of cell culture supernatant with 50 μL of Griess reagent (1% sulfanilamide and 0.1% N-(1-naphthyl)ethylenediamine dihydrochloride in 2.5% phosphoric acid) at room temperature. The optical density was measured at 550 nm after 5 min of incubation at room temperature with a microplate reader.

[3] = IFN-γ/LPS-stimulated RAW 264.7 cells
[4] = IFN-γ/LPS-stimulated RAW 264.7 cells, read-out: NO Inhibition IC50 (µM) ± S.E.M
[5] = Mus musculus, IFN-γ/LPS-stimulated RAW 264.7 cells
[6] = Mus musculus, RAW264.7, IFN-γ/LPS-stimulated RAW 264.7 cells, read-out: NO Inhibition IC50 (µM) ± S.E.M
[7] = Mus musculus, RAW264.7, Table 6, NO suppression IC50 used for QSAR, unit inferred, read-out: IC50
[8] = Mus musculus, RAW264.7, −log IC50 of NO suppression, read-out: pIC50 (converted)

| IC50 [2, 4] [µM] | IC50 [2, 6] [µM] | IC50 [2, 7] [µM] | IC50 [2, 8] [µM] | Compound | IC50 [1] [µM] | NO Inhibition at 50 µM (%) ± S.E.M [2, 3] [%] | inhibition at 50 µM [2, 5] [%] |
| --- | --- | --- | --- | --- | --- | --- | --- |
| < 20 | 19.8 ± 0.365 | 19.8 ± 0.4 | 20 | COc1ccc(O)c(C(=O)/C=C(O)/C=C/c2ccc(OC)c(OC)c2)c1 [Compound 63] | > 100 | 92.2 ± 0.8 | 92.19 ± 0.77 |
|  | 21.7 ± 0.5 | 21.7 ± 0.5 | 21.9 | COc1ccc(C(=O)/C=C(O)/C=C/c2ccc(OC)c(OC)c2)c(O)c1 [Compound 51] | > 100 | 58.9 ± 2.8 | 58.9 ± 2.76 |
|  | 25.9 ± 0.325 | 25.9 ± 0.3 | 25.7 | COc1ccc(O)c(C(=O)/C=C(O)/C=C/c2ccccc2)c1 [Compound 58] | > 100 | 92.8 ± 1.8 | 92.8 ± 1.8 |
|  | 22.6 ± 0.515 | 22.6 ± 0.5 | 22.4 | O=C(/C=C(O)/C=C/c1ccccc1)c1ccccc1O [Compound 1] | 56.2 ± 1.1 | 94.7 ± 1.2 | 94.7 ± 1.2 |
|  | 39.6 ± 4.13 | 39.6 ± 4.1 | 39.8 | Cc1ccc(/C=C/C(O)=C/C(=O)c2ccccc2O)s1 [Compound 18] | > 100 | 58.9 ± 5.8 | 58.9 ± 5.76 |
|  | 27.32 ± 0.234 | 27.3 ± 0.2 | 27.5 | O=C(/C=C(O)/C=C/c1ccccc1Cl)c1ccccc1O [Compound 2] | > 100 |  | 91 ± 2.9 |
|  | 58.5 ± 2.45 | 58.5 ± 2.4 | 58.9 | COc1ccc(C(=O)/C=C(O)/C=C/c2ccccc2Cl)c(O)c1 [Compound 46] | > 100 | 76.2 ± 4.6 | 76.2 ± 4.57 |
|  | 29.4 ± 0.7 | 29.4 ± 0.7 | 29.5 | O=C(/C=C(O)/C=C/c1cccc(Br)c1)c1ccccc1O [Compound 4] | > 100 | 88.4 ± 3.2 | 88.4 ± 3.21 |
|  | 29.3 ± 0.306 | 29.3 ± 0.3 | 29.5 | COc1ccc(C(=O)/C=C(O)/C=C/c2cc(OC)c(OC)c(OC)c2)c(O)c1 [Compound 52] | > 100 | 96.4 ± 0.4 | 96.39 ± 0.37 |
|  | 71.5 ± 2.5 | 71.5 ± 2.5 | 70.8 | COc1ccc(O)c(C(=O)/C=C(O)/C=C/c2ccco2)c1 [Compound 67] | > 100 | 72.1 ± 3.1 | 72.1 ± 3.07 |
|  | 28.4 ± 0.435 | 28.4 ± 0.4 | 28.2 | COc1ccc(OC)c(/C=C/C(O)=C/C(=O)c2ccccc2O)c1 [Compound 14] | > 100 |  | 92.9 ± 0.2 |
|  | 29.5 ± 0.469 | 29.5 ± 0.5 | 29.5 | COc1ccc(C(=O)/C=C(O)/C=C/c2ccccc2)c(O)c1 [Compound 45] | > 100 |  | 87.9 ± 5.1 |
|  | 26.7 ± 0.732 | 26.7 ± 0.7 | 26.9 | O=C(/C=C(O)/C=C/c1cccc(Cl)c1)c1ccccc1O [Compound 3] | > 100 | 93.0 ± 3.4 | 93 ± 3.43 |
| < 20 | 16.7 ± 0.557 | 16.7 ± 0.6 | 16.6 | O=C(/C=C(O)/C=C/c1cc(O)ccc1O)c1ccccc1O [Compound 83] |  | 94.3 ± 1.8 | 94.3 ± 1.83 |
|  | 36.2 ± 0.922 | 36.2 ± 0.9 | 36.3 | O=C(/C=C(O)/C=C/c1cccc(Cl)c1)c1cc(Cl)ccc1O [Compound 23] | 68.4 ± 2.2 | 66.6 ± 4.1 | 66.6 ± 4.11 |
|  | 20.8 ± 0.54 | 20.8 ± 0.5 | 20.9 | O=C(/C=C(O)/C=C/c1ccccc1)c1cc(Br)ccc1O [Compound 41] | > 100 |  | 79.9 ± 8.7 |
| < 20 | 19.8 ± 0.907 | 19.8 ± 0.9 | 20 | O=C(/C=C(O)/C=C/c1cccc(Cl)c1)c1cc(Br)ccc1O [Compound 43] | > 100 | 81.2 ± 5.2 | 81.2 ± 5.16 |
|  | 45.8 ± 0.804 | 45.8 ± 0.8 | 45.7 | COc1cccc(/C=C/C(O)=C/C(=O)c2ccc(OC)cc2O)c1 [Compound 49] | > 100 | 57.5 ± 6.5 | 57.5 ± 6.45 |
|  | 30 ± 2.1 | 30 ± 2.1 | 30.2 | O=C(/C=C(O)/C=C/c1ccccc1Cl)c1cc(Cl)ccc1O [Compound 22] | > 100 | 82.5 ± 4.3 | 82.5 ± 4.32 |
|  | 44.8 ± 1.57 | 44.8 ± 1.6 | 44.7 | O=C(/C=C(O)/C=C/c1cccs1)c1ccc(O)cc1O [Compound 95] | > 100 | 60.4 ± 2.0 | 60.4 ± 2.04 |
|  | 47.6 ± 1.14 | 47.6 ± 1.1 | 47.9 | O=C(/C=C(O)/C=C/c1ccccc1)c1cc(Cl)ccc1O [Compound 21] | > 100 | 85.3 ± 6.8 | 85.3 ± 6.76 |
|  | 62.4 ± 2.29 | 62.4 ± 2.3 | 63.1 | Cc1ccc(/C=C/C(O)=C/C(=O)c2cc(Cl)ccc2O)s1 [Compound 37] | > 100 | 56.0 ± 2.6 | 56 ± 2.62 |
|  | 49 ± 1.05 | 49 ± 1 | 49 | O=C(/C=C(O)/C=C/c1ccco1)c1ccccc1O [Compound 12] | > 100 | 82.0 ± 3.2 | 82 ± 3.18 |
|  | 31.6 ± 0.632 | 31.6 ± 0.6 | 31.6 | COc1cccc(/C=C/C(O)=C/C(=O)c2ccccc2O)c1 [Compound 6] | > 100 | 81.6 ± 4.0 | 81.6 ± 3.97 |
| < 20 | 18.4 ± 0.246 | 18.4 ± 0.2 | 18.2 | COc1ccc(O)c(C(=O)/C=C(O)/C=C/c2cc(OC)c(OC)c(OC)c2)c1 [Compound 64] | > 100 | 95.2 ± 1.1 | 95.2 ± 1.09 |
|  | 32.17 ± 0.176 | 32.2 ± 0.2 | 32.4 | O=C(/C=C(O)/C=C/c1cccs1)c1cc(Cl)ccc1O [Compound 35] | > 100 | 68.8 ± 4.2 | 68.8 ± 4.21 |
|  | 25.3 ± 1.73 | 25.3 ± 1.7 | 25.1 | O=C(/C=C(O)/C=C/c1ccc(Cl)s1)c1cc(Cl)ccc1O [Compound 36] | > 100 | 71.6 ± 3.2 | 71.5 ± 3.2 |
|  | 23 ± 1.7 | 23 ± 1.7 | 22.9 | O=C(/C=C(O)/C=C/c1cccc2ccccc12)c1ccccc1O [Compound 19] | > 100 | 85.8 ± 3.9 | 85.8 ± 3.93 |
| < 20 | 16.6 ± 1.14 | 16.6 ± 1.1 | 16.6 | COc1cc(/C=C/C(O)=C/C(=O)c2ccccc2O)cc(OC)c1OC [Compound 9] | > 100 | 96.6 ± 1.4 | 96.6 ± 1.43 |
